In PubChem BioAssay (NCI):
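In this assay, cells in 96-well plates receive the compound at five concentrations for 48 hours. Endpoints are linearly interpolated between the surrounding concentrations. At the TGI there is no net growth.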

Legend:
Test in all cases: NCI anticancer screen, dose series, 48 h
786-0 renal = tested on: 786-0 renal
A498 renal = tested on: A498 renal
A549 NSCLC = tested on: A549 NSCLC
ACHN renal = tested on: ACHN renal
BT-549 breast = tested on: BT-549 breast
CAKI-1 renal = tested on: CAKI-1 renal
CCRF-CEM leukemia = tested on: CCRF-CEM leukemia
COLO 205 colon = tested on: COLO 205 colon
DU-145 prostate = tested on: DU-145 prostate
EKVX NSCLC = tested on: EKVX NSCLC
HCC-2998 colon = tested on: HCC-2998 colon
HCT-116 colon = tested on: HCT-116 colon
HCT-15 colon = tested on: HCT-15 colon
HL-60(TB) leukemia = tested on: HL-60(TB) leukemia
HOP-62 NSCLC = tested on: HOP-62 NSCLC
HOP-92 NSCLC = tested on: HOP-92 NSCLC
HS 578T breast = tested on: HS 578T breast
HT29 colon = tested on: HT29 colon
IGROV1 ovarian = tested on: IGROV1 ovarian
K-562 leukemia = tested on: K-562 leukemia
KM12 colon = tested on: KM12 colon
LOX IMVI melanoma = tested on: LOX IMVI melanoma
M14 melanoma = tested on: M14 melanoma
MCF7 breast = tested on: MCF7 breast
MDA-MB-231 breast = tested on: MDA-MB-231 breast
MDA-MB-435 = tested on: MDA-MB-435
MDA-N = tested on: MDA-N
MOLT-4 leukemia = tested on: MOLT-4 leukemia
NCI-H226 lung = tested on: NCI-H226 lung
NCI-H23 lung = tested on: NCI-H23 lung
NCI-H460 lung = tested on: NCI-H460 lung
NCI-H522 lung = tested on: NCI-H522 lung
NCI/ADR-RES ovarian = tested on: NCI/ADR-RES ovarian
OVCAR-3 ovarian = tested on: OVCAR-3 ovarian
OVCAR-4 ovarian = tested on: OVCAR-4 ovarian
OVCAR-5 ovarian = tested on: OVCAR-5 ovarian
OVCAR-8 ovarian = tested on: OVCAR-8 ovarian
PC-3 prostate = tested on: PC-3 prostate
RPMI-8226 leukemia = tested on: RPMI-8226 leukemia
RXF 393 renal = tested on: RXF 393 renal
SF-268 CNS = tested on: SF-268 CNS
SF-295 CNS = tested on: SF-295 CNS
SK-MEL-2 melanoma = tested on: SK-MEL-2 melanoma
SK-MEL-28 melanoma = tested on: SK-MEL-28 melanoma
SK-MEL-5 melanoma = tested on: SK-MEL-5 melanoma
SK-OV-3 ovarian = tested on: SK-OV-3 ovarian
SN12C renal = tested on: SN12C renal
SNB-19 CNS = tested on: SNB-19 CNS
SNB-75 CNS = tested on: SNB-75 CNS
SW-620 colon = tested on: SW-620 colon
T-47D breast = tested on: T-47D breast
TK-10 renal = tested on: TK-10 renal
U251 CNS = tested on: U251 CNS
UACC-257 melanoma = tested on: UACC-257 melanoma
UACC-62 melanoma = tested on: UACC-62 melanoma
UO-31 renal = tested on: UO-31 renal
MALME-3M melanoma = tested on: MALME-3M melanoma
SF-539 CNS = tested on: SF-539 CNS

## COc1ccc(N2C(=O)C3c4[nH]c5ccc(OC)cc5c4C4CCC(C(C)C)CC4C3C2=O)cc1 (stereo not given)
786-0 renal
  TGI: > 55.2 µM
A498 renal
  TGI: > 92.5 µM
A549 NSCLC
  TGI: > 100 µM
ACHN renal
  TGI: > 100 µM
BT-549 breast
  TGI: > 100 µM
CAKI-1 renal
  TGI: > 100 µM
CCRF-CEM leukemia
  TGI: > 30.3 µM
COLO 205 colon
  TGI: > 100 µM
DU-145 prostate
  TGI: > 100 µM
EKVX NSCLC
  TGI: > 100 µM
HCC-2998 colon
  TGI: > 100 µM
HCT-116 colon
  TGI: > 100 µM
HCT-15 colon
  TGI: > 100 µM
HL-60(TB) leukemia
  TGI: > 100 µM
HOP-62 NSCLC
  TGI: 54.8 µM
HOP-92 NSCLC
  TGI: > 100 µM
HS 578T breast
  TGI: > 84.4 µM
HT29 colon
  TGI: > 100 µM
IGROV1 ovarian
  TGI: > 100 µM
K-562 leukemia
  TGI: > 31.6 µM
KM12 colon
  TGI: > 100 µM
LOX IMVI melanoma
  TGI: > 100 µM
M14 melanoma
  TGI: > 100 µM
MCF7 breast
  TGI: > 100 µM
MDA-MB-231 breast
  TGI: > 100 µM
MDA-MB-435
  TGI: > 100 µM
MDA-N
  TGI: > 100 µM
MOLT-4 leukemia
  TGI: > 93.5 µM
NCI-H226 lung
  TGI: > 100 µM
NCI-H23 lung
  TGI: > 100 µM
NCI-H460 lung
  TGI: > 100 µM
NCI-H522 lung
  TGI: > 100 µM
NCI/ADR-RES ovarian
  TGI: > 100 µM
OVCAR-3 ovarian
  TGI: > 100 µM
OVCAR-4 ovarian
  TGI: > 100 µM
OVCAR-5 ovarian
  TGI: > 100 µM
OVCAR-8 ovarian
  TGI: > 100 µM
PC-3 prostate
  TGI: > 100 µM
RPMI-8226 leukemia
  TGI: > 100 µM
RXF 393 renal
  TGI: > 100 µM
SF-268 CNS
  TGI: > 74.5 µM
SF-295 CNS
  TGI: > 100 µM
SK-MEL-2 melanoma
  TGI: > 100 µM
SK-MEL-28 melanoma
  TGI: > 100 µM
SK-MEL-5 melanoma
  TGI: > 100 µM
SK-OV-3 ovarian
  TGI: > 100 µM
SN12C renal
  TGI: > 100 µM
SNB-19 CNS
  TGI: 99.4 µM
SNB-75 CNS
  TGI: > 65.5 µM
SW-620 colon
  TGI: > 100 µM
T-47D breast
  TGI: > 100 µM
TK-10 renal
  TGI: > 100 µM
U251 CNS
  TGI: > 100 µM
UACC-257 melanoma
  TGI: > 100 µM
UACC-62 melanoma
  TGI: > 31.6 µM
UO-31 renal
  TGI: > 100 µM

## Nc1ccc2nc3ccc(=O)cc-3n(-c3ccccc3)c2c1
786-0 renal
  TGI: > 100 µM
A498 renal
  TGI: 85.7 µM
A549 NSCLC
  TGI: > 100 µM
ACHN renal
  TGI: > 100 µM
BT-549 breast
  TGI: > 100 µM
CCRF-CEM leukemia
  TGI: > 100 µM
COLO 205 colon
  TGI: > 100 µM
DU-145 prostate
  TGI: > 100 µM
EKVX NSCLC
  TGI: > 100 µM
HCC-2998 colon
  TGI: > 100 µM
HCT-116 colon
  TGI: > 100 µM
HCT-15 colon
  TGI: > 100 µM
HL-60(TB) leukemia
  TGI: > 100 µM
HOP-62 NSCLC
  TGI: > 100 µM
HOP-92 NSCLC
  TGI: > 100 µM
HS 578T breast
  TGI: > 100 µM
HT29 colon
  TGI: > 100 µM
IGROV1 ovarian
  TGI: > 100 µM
K-562 leukemia
  TGI: > 100 µM
KM12 colon
  TGI: > 100 µM
M14 melanoma
  TGI: > 100 µM
MALME-3M melanoma
  TGI: > 100 µM
MCF7 breast
  TGI: > 100 µM
MDA-MB-231 breast
  TGI: > 100 µM
MDA-MB-435
  TGI: > 100 µM
MDA-N
  TGI: > 100 µM
MOLT-4 leukemia
  TGI: > 100 µM
NCI-H226 lung
  TGI: > 100 µM
NCI-H23 lung
  TGI: > 100 µM
NCI-H460 lung
  TGI: > 100 µM
NCI-H522 lung
  TGI: > 100 µM
NCI/ADR-RES ovarian
  TGI: > 100 µM
OVCAR-3 ovarian
  TGI: > 100 µM
OVCAR-4 ovarian
  TGI: > 100 µM
OVCAR-5 ovarian
  TGI: > 100 µM
OVCAR-8 ovarian
  TGI: > 100 µM
PC-3 prostate
  TGI: > 100 µM
RPMI-8226 leukemia
  TGI: > 100 µM
RXF 393 renal
  TGI: > 100 µM
SF-268 CNS
  TGI: > 100 µM
SF-295 CNS
  TGI: > 100 µM
SF-539 CNS
  TGI: > 100 µM
SK-MEL-2 melanoma
  TGI: > 100 µM
SK-MEL-28 melanoma
  TGI: > 100 µM
SK-MEL-5 melanoma
  TGI: > 100 µM
SK-OV-3 ovarian
  TGI: > 100 µM
SN12C renal
  TGI: > 100 µM
SNB-19 CNS
  TGI: > 100 µM
SNB-75 CNS
  TGI: 92.4 µM
SW-620 colon
  TGI: > 100 µM
T-47D breast
  TGI: > 100 µM
U251 CNS
  TGI: > 100 µM
UACC-62 melanoma
  TGI: > 100 µM
UO-31 renal
  TGI: > 100 µM

## N#CCCN(CCNc1ccccc1)C(=O)Nc1ccc(NC(=O)N(CCC#N)CCNc2ccccc2)cc1
786-0 renal
  TGI: > 100 µM
A498 renal
  TGI: > 100 µM
A549 NSCLC
  TGI: > 100 µM
ACHN renal
  TGI: > 100 µM
BT-549 breast
  TGI: > 80.4 µM
CAKI-1 renal
  TGI: > 100 µM
COLO 205 colon
  TGI: > 100 µM
DU-145 prostate
  TGI: > 100 µM
EKVX NSCLC
  TGI: > 100 µM
HCC-2998 colon
  TGI: > 100 µM
HCT-116 colon
  TGI: > 100 µM
HCT-15 colon
  TGI: > 100 µM
HOP-62 NSCLC
  TGI: > 84.7 µM
HOP-92 NSCLC
  TGI: > 81.5 µM
HS 578T breast
  TGI: > 64.2 µM
HT29 colon
  TGI: > 100 µM
K-562 leukemia
  TGI: > 100 µM
KM12 colon
  TGI: > 100 µM
LOX IMVI melanoma
  TGI: > 100 µM
M14 melanoma
  TGI: > 100 µM
MALME-3M melanoma
  TGI: > 100 µM
MCF7 breast
  TGI: > 100 µM
MDA-MB-231 breast
  TGI: > 100 µM
MDA-MB-435
  TGI: > 100 µM
MDA-N
  TGI: > 100 µM
MOLT-4 leukemia
  TGI: > 100 µM
NCI-H226 lung
  TGI: > 100 µM
NCI-H23 lung
  TGI: > 100 µM
NCI-H460 lung
  TGI: > 100 µM
NCI-H522 lung
  TGI: > 66.3 µM
NCI/ADR-RES ovarian
  TGI: > 100 µM
OVCAR-3 ovarian
  TGI: > 100 µM
OVCAR-4 ovarian
  TGI: > 31.6 µM
OVCAR-5 ovarian
  TGI: > 100 µM
OVCAR-8 ovarian
  TGI: > 100 µM
PC-3 prostate
  TGI: > 100 µM
RPMI-8226 leukemia
  TGI: > 100 µM
RXF 393 renal
  TGI: > 83 µM
SF-268 CNS
  TGI: > 79.9 µM
SF-295 CNS
  TGI: > 100 µM
SF-539 CNS
  TGI: > 100 µM
SK-MEL-2 melanoma
  TGI: > 100 µM
SK-MEL-28 melanoma
  TGI: > 100 µM
SK-MEL-5 melanoma
  TGI: > 100 µM
SK-OV-3 ovarian
  TGI: > 100 µM
SN12C renal
  TGI: > 100 µM
SNB-19 CNS
  TGI: > 100 µM
SNB-75 CNS
  TGI: 72 µM
SW-620 colon
  TGI: > 100 µM
T-47D breast
  TGI: > 100 µM
TK-10 renal
  TGI: 98 µM
U251 CNS
  TGI: > 100 µM
UACC-257 melanoma
  TGI: > 100 µM
UACC-62 melanoma
  TGI: > 100 µM
UO-31 renal
  TGI: > 100 µM
